Test results: ChEMBL document CHEMBL3885881, “DrugMatrix”

Species on record: Rattus norvegicus
Assay: DrugMatrix - Regimen: Daily Repeat
Format: toxicity, organism-based, Sprague-Dawley
Design: regimen Daily Repeat, gender Male, age 6-8 weeks
Conditions: in vivo, po, route oral GAVAGE, vehicle .5 % CMC; for ABSOLUTE BASOPHIL / ABSOLUTE EOSINOPHIL / ABSOLUTE LYMPHOCYTE / ABSOLUTE MONOCYTE / ABSOLUTE SEGMENTED NEUTROPHIL / BASOPHIL / EOSINOPHIL / ERYTHROCYTE COUNT / HEMATOCRIT / HEMOGLOBIN / LEUKOCYTE COUNT / LYMPHOCYTE / MEAN CORPUSCULAR HEMOGLOBIN / MEAN CORPUSCULAR HEMOGLOBIN CONCENTRATION / MEAN CORPUSCULAR VOLUME / MONOCYTE / NEUTROPHIL / NUCLEATED RED BLOOD CELLS / PLATELET COUNT: tissue Blood; for ALANINE AMINOTRANSFERASE / ALBUMIN / ALKALINE PHOSPHATASE / ASPARTATE AMINOTRANSFERASE / BLOOD UREA NITROGEN / CARBON DIOXIDE / CHLORIDE / CHOLESTEROL / CREATINE PHOSPHOKINASE / CREATININE / GLUCOSE / LACTATE DEHYDROGENASE / LIPASE / PHOSPHORUS / POTASSIUM / SODIUM / TOTAL BILIRUBIN / TOTAL PROTEIN / URIC ACID: tissue Plasma
[1] = 10 mg/kg, 72 h, dose level Low, time 3 day
[2] = 10 mg/kg, 120 h, dose level Low, time 5 day
[3] = 1750 mg/kg, 72 h, dose level High, time 3 day
[4] = 1750 mg/kg, 120 h, dose level High, time 5 day

Compound: CCOC(=O)[C@H](CCc1ccccc1)N[C@H]1CCc2ccccc2N(CC(=O)O)C1=O [BENAZEPRIL]
- ABSOLUTE BASOPHIL [1]: 0 CELLS/uL
- ABSOLUTE EOSINOPHIL [1]: 0 CELLS/uL
- ABSOLUTE LYMPHOCYTE [1]: 8474.33 CELLS/uL
- ABSOLUTE MONOCYTE [1]: 40.67 CELLS/uL
- ABSOLUTE SEGMENTED NEUTROPHIL [1]: 418.33 CELLS/uL
- BASOPHIL [1]: 0%
- EOSINOPHIL [1]: 0%
- ERYTHROCYTE COUNT [1]: 5.44 x10E6/uL
- HEMATOCRIT [1]: 35.27%
- HEMOGLOBIN [1]: 14.3 G/DL
- LEUKOCYTE COUNT [1]: 8.93 x10E3/uL
- LYMPHOCYTE [1]: 94.33%
- MEAN CORPUSCULAR HEMOGLOBIN [1]: 26.27 pg
- MEAN CORPUSCULAR HEMOGLOBIN CONCENTRATION [1]: 40.53 G/DL
- MEAN CORPUSCULAR VOLUME [1]: 64.8 fL
- MONOCYTE [1]: 0.67%
- NEUTROPHIL [1]: 5%
- NUCLEATED RED BLOOD CELLS [1]: 0 /100WBC
- PLATELET COUNT [1]: 1050 x10E3/uL
- ALANINE AMINOTRANSFERASE [1]: 47.33 u/L
- ALBUMIN [1]: 4.6 G/DL
- ALKALINE PHOSPHATASE [1]: 428.33 u/L
- ASPARTATE AMINOTRANSFERASE [1]: 84.67 u/L
- BLOOD UREA NITROGEN [1]: 18 mg/dL
- CARBON DIOXIDE [1]: 34.33 mmol/L
- CHLORIDE [1]: 99 MEQ/L
- CHOLESTEROL [1]: 78.67 mg/dL
- CREATINE PHOSPHOKINASE [1]: 322 u/L
- CREATININE [1]: 0.22 mg/dL
- GLUCOSE [1]: 135.33 mg/dL
- LACTATE DEHYDROGENASE [1]: 124.67 u/L
- LIPASE [1]: 10 u/L
- PHOSPHORUS [1]: 10.63 mg/dL
- POTASSIUM [1]: 6.53 MEQ/L
- SODIUM [1]: 145.23 MEQ/L
- TOTAL BILIRUBIN [1]: 0.2 mg/dL
- TOTAL PROTEIN [1]: 6.57 G/DL
- URIC ACID [1]: 0.83 mg/dL
- ABSOLUTE BASOPHIL [2]: 0 CELLS/uL
- ABSOLUTE EOSINOPHIL [2]: 90 CELLS/uL
- ABSOLUTE LYMPHOCYTE [2]: 12851.33 CELLS/uL
- ABSOLUTE MONOCYTE [2]: 265.67 CELLS/uL
- ABSOLUTE SEGMENTED NEUTROPHIL [2]: 1459.67 CELLS/uL
- BASOPHIL [2]: 0%
- EOSINOPHIL [2]: 0.67%
- ERYTHROCYTE COUNT [2]: 5.31 x10E6/uL
- HEMATOCRIT [2]: 33.43%
- HEMOGLOBIN [2]: 13.47 G/DL
- LEUKOCYTE COUNT [2]: 14.67 x10E3/uL
- LYMPHOCYTE [2]: 88%
- MEAN CORPUSCULAR HEMOGLOBIN [2]: 25.33 pg
- MEAN CORPUSCULAR HEMOGLOBIN CONCENTRATION [2]: 40.27 G/DL
- MEAN CORPUSCULAR VOLUME [2]: 62.9 fL
- MONOCYTE [2]: 2%
- NEUTROPHIL [2]: 9.33%
- NUCLEATED RED BLOOD CELLS [2]: 0 /100WBC
- PLATELET COUNT [2]: 1304.67 x10E3/uL
- ALANINE AMINOTRANSFERASE [2]: 52.67 u/L
- ALBUMIN [2]: 4.2 G/DL
- ALKALINE PHOSPHATASE [2]: 304.33 u/L
- ASPARTATE AMINOTRANSFERASE [2]: 76 u/L
- BLOOD UREA NITROGEN [2]: 18 mg/dL
- CARBON DIOXIDE [2]: 32 mmol/L
- CHLORIDE [2]: 102 MEQ/L
- CHOLESTEROL [2]: 73.67 mg/dL
- CREATINE PHOSPHOKINASE [2]: 234.67 u/L
- CREATININE [2]: 0.15 mg/dL
- GLUCOSE [2]: 160.67 mg/dL
- LACTATE DEHYDROGENASE [2]: 106.67 u/L
- LIPASE [2]: 9 u/L
- PHOSPHORUS [2]: 13.27 mg/dL
- POTASSIUM [2]: 7.06 MEQ/L
- SODIUM [2]: 144.9 MEQ/L
- TOTAL BILIRUBIN [2]: 0.2 mg/dL
- TOTAL PROTEIN [2]: 6.27 G/DL
- URIC ACID [2]: 1.57 mg/dL
- ABSOLUTE BASOPHIL [3]: 0 CELLS/uL
- ABSOLUTE EOSINOPHIL [3]: 139.33 CELLS/uL
- ABSOLUTE LYMPHOCYTE [3]: 16004 CELLS/uL
- ABSOLUTE MONOCYTE [3]: 0 CELLS/uL
- ABSOLUTE SEGMENTED NEUTROPHIL [3]: 1823.33 CELLS/uL
- BASOPHIL [3]: 0%
- EOSINOPHIL [3]: 0.67%
- ERYTHROCYTE COUNT [3]: 5.02 x10E6/uL
- HEMATOCRIT [3]: 32.27%
- HEMOGLOBIN [3]: 13.23 G/DL
- LEUKOCYTE COUNT [3]: 17.97 x10E3/uL
- LYMPHOCYTE [3]: 89.33%
- MEAN CORPUSCULAR HEMOGLOBIN [3]: 26.43 pg
- MEAN CORPUSCULAR HEMOGLOBIN CONCENTRATION [3]: 41.03 G/DL
- MEAN CORPUSCULAR VOLUME [3]: 64.37 fL
- MONOCYTE [3]: 0%
- NEUTROPHIL [3]: 10%
- NUCLEATED RED BLOOD CELLS [3]: 0 /100WBC
- PLATELET COUNT [3]: 1175.67 x10E3/uL
- ALANINE AMINOTRANSFERASE [3]: 47.67 u/L
- ALBUMIN [3]: 4.13 G/DL
- ALKALINE PHOSPHATASE [3]: 388 u/L
- ASPARTATE AMINOTRANSFERASE [3]: 83.33 u/L
- BLOOD UREA NITROGEN [3]: 23.67 mg/dL
- CARBON DIOXIDE [3]: 28.33 mmol/L
- CHLORIDE [3]: 101 MEQ/L
- CHOLESTEROL [3]: 63.67 mg/dL
- CREATINE PHOSPHOKINASE [3]: 244.67 u/L
- CREATININE [3]: 0.24 mg/dL
- GLUCOSE [3]: 152.33 mg/dL
- LACTATE DEHYDROGENASE [3]: 297.33 u/L
- LIPASE [3]: 9.33 u/L
- PHOSPHORUS [3]: 11.27 mg/dL
- POTASSIUM [3]: 7.42 MEQ/L
- SODIUM [3]: 140.93 MEQ/L
- TOTAL BILIRUBIN [3]: 0.23 mg/dL
- TOTAL PROTEIN [3]: 5.73 G/DL
- URIC ACID [3]: 1.73 mg/dL
- ABSOLUTE BASOPHIL [4]: 0 CELLS/uL
- ABSOLUTE EOSINOPHIL [4]: 0 CELLS/uL
- ABSOLUTE LYMPHOCYTE [4]: 16017 CELLS/uL
- ABSOLUTE MONOCYTE [4]: 660 CELLS/uL
- ABSOLUTE SEGMENTED NEUTROPHIL [4]: 1423 CELLS/uL
- BASOPHIL [4]: 0%
- EOSINOPHIL [4]: 0%
- ERYTHROCYTE COUNT [4]: 5.54 x10E6/uL
- HEMATOCRIT [4]: 33.43%
- HEMOGLOBIN [4]: 13.43 G/DL
- LEUKOCYTE COUNT [4]: 18.1 x10E3/uL
- LYMPHOCYTE [4]: 89.33%
- MEAN CORPUSCULAR HEMOGLOBIN [4]: 24.3 pg
- MEAN CORPUSCULAR HEMOGLOBIN CONCENTRATION [4]: 40.2 G/DL
- MEAN CORPUSCULAR VOLUME [4]: 60.5 fL
- MONOCYTE [4]: 3.67%
- NEUTROPHIL [4]: 7%
- NUCLEATED RED BLOOD CELLS [4]: 0.33 /100WBC
- PLATELET COUNT [4]: 1330 x10E3/uL
- ALANINE AMINOTRANSFERASE [4]: 49.67 u/L
- ALBUMIN [4]: 4.03 G/DL
- ALKALINE PHOSPHATASE [4]: 380.33 u/L
- ASPARTATE AMINOTRANSFERASE [4]: 85.33 u/L
- BLOOD UREA NITROGEN [4]: 44 mg/dL
- CARBON DIOXIDE [4]: 30 mmol/L
- CHLORIDE [4]: 104.33 MEQ/L
- CHOLESTEROL [4]: 74.67 mg/dL
- CREATINE PHOSPHOKINASE [4]: 585 u/L
- CREATININE [4]: 0.27 mg/dL
- GLUCOSE [4]: 150.67 mg/dL
- LACTATE DEHYDROGENASE [4]: 227 u/L
- LIPASE [4]: 9.33 u/L
- PHOSPHORUS [4]: 10.53 mg/dL
- POTASSIUM [4]: 6.39 MEQ/L
- SODIUM [4]: 143.17 MEQ/L
- TOTAL BILIRUBIN [4]: 0.2 mg/dL
- TOTAL PROTEIN [4]: 6 G/DL
- URIC ACID [4]: 1.53 mg/dL
